The assay addresses T1, C5AR1 (Homo sapiens, UniProt P21730).
T1 construct: host or cells: CHO-K1
T1 sequence (P21730 1-350): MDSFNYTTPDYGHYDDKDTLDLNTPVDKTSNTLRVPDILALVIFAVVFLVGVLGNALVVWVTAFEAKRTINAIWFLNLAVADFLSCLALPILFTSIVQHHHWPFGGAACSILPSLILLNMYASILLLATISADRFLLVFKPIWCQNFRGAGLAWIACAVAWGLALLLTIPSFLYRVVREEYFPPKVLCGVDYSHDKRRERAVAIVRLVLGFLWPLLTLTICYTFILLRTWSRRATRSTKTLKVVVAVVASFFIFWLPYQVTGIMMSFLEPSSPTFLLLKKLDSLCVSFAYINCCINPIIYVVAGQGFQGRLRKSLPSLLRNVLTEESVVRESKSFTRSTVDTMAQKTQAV
The assay can be described thus: In vitro assay: antagonism of C5a-induced beta-arrestin recruitment (PathHunter) in CHO-K1 C5AR1 beta-arrestin cell line. It counts as cell-based. Conditions: antagonistic activity, 1-10 nM C5a agonist, geometric mean where several measurements, read-out: C5aR IC50. Here is the method: 5 μl Antagonist at 6-fold end concentration or DMSO control is added to assay medium and subsequently 5 μl 1-10 nM C5a agonist at 6 fold end concentration. Cells are centrifuged for 1 min at 1000 rpm and incubated for 1.5 hour in at 37° C. Plates are equilibrated at room temperature for several minutes before adding 12 μl/well Detection Reagent (PathHunter Detection Kit, DiscoverX, Cat #93-0001). Plates are centrifuged for 1 min at 1000 rpm and incubated for 45 minutes at RT before being measured on a Fluostar Optima, BMG Labtech. IC50 values are calculated from a serial dilution range of antagonist using inhouse software and given in nmol/l.
The calculated IC50 values may fluctuate depending on the daily cellular assay performance. Fluctuations of this kind are known to those skilled in the art. Average IC50 values from several measurements are given as geometric mean values.
A general note: Activated receptors often draw arrestin, which recruitment assays turn into a signal.
One may read the IC50 as the midpoint of a concentration-inhibition curve. For `CC1c2c[nH]nc2N(Cc2ccccc2C(F)(F)F)C(=O)N1C1CCN(c2c(F)cccc2Cl)CC1` (single isomer, unassigned) [Example 350], the IC50 was 4 nM.
The figure for `COc1ccnc(OC)c1N1CCC(N2Cc3cn(C)nc3N(Cc3ccccc3C(F)(F)F)C2=O)CC1` [Example 95] is 125 nM; for `Cc1cccc(F)c1N1CCC(N2Cc3cn(C4CN(CC(C)C)C4)nc3N(Cc3ccccc3C(F)(F)F)C2=O)CC1` [Example 104] it is 146 nM.
The result for `COc1nccc(C)c1N1CCC(N2Cc3cn(C)nc3N(C(C)c3ccccc3C(F)(F)F)C2=O)CC1` (single isomer, unassigned) [Example 287] reads 37 nM; that for `Cc1cccc(F)c1N1CCC(N2Cc3nn(CC4CC4)cc3N(Cc3ccccc3C(F)(F)F)C2=O)CC1` [Example 178], 16 nM.
The figure for `CC1c2cn(C)nc2N(Cc2ccccc2C2CC2)C(=O)N1C1CCN(c2c(F)cccc2Cl)CC1` (single isomer, unassigned) [Example 322] is 3 nM.
Take `COc1nccc(C)c1N1CCC(N2C(=O)N(Cc3ccccc3C(F)(F)F)c3cn(C4CC4)nc3C2C)CC1` (single isomer, unassigned) [Example 297]: the IC50 turned out to be 326 nM.
As for `COc1nccc(C)c1N1CCC(N2C(=O)N(Cc3ccccc3C3CC3)c3nn(C4CC4)cc3C2C)CC1` (single isomer, unassigned) [Example 380], the IC50 is 21 nM.
The result for `CC1c2nn(C3CC3)cc2N(Cc2ccccc2C(F)(F)F)C(=O)N1C1CCN(c2c(F)cccc2Cl)CC1` (single isomer, unassigned) [Example 327] reads 520 nM.
The figure for `CC1c2cn(C)nc2N(Cc2ccccc2C2CC2)C(=O)N1C1CCN(c2c(F)cccc2Br)CC1` (single isomer, unassigned) [Example 384] is 12 nM; for `Cc1cccc(F)c1N1CCC(N2C(=O)N(Cc3ccccc3C(F)(F)F)c3c[nH]nc3C2C)CC1` (single isomer, unassigned) [Example 263] it is 21 nM; for `CC1c2c[nH]nc2N(Cc2ccccc2C2CC2)C(=O)N1C1CCN(c2c(F)cccc2Cl)CC1` (single isomer, unassigned) [Example 372] it is 11 nM.
On to `Cc1cccc(F)c1N1CCC(N2Cc3cn(C4CN(C(=O)OC5(C(F)(F)F)COC5)C4)nc3N(Cc3ccccc3C(F)(F)F)C2=O)CC1` [Example 140], for which the IC50 is 18 nM.
The figure for `Cc1cccc(Cl)c1N1CCC(N2Cc3cn(C)nc3N(Cc3ccccc3C(F)(F)F)C2=O)CC1` [Example 245] is 16 nM; for `Cc1cccc(F)c1N1CCC(N2Cc3cn(C[C@H]4CCN4)nc3N(Cc3ccccc3C(F)(F)F)C2=O)CC1` [Example 130] it is 390 nM; for `COc1nccc(Cl)c1N1CCC(N2C(=O)N(Cc3ccccc3C3CC3)c3nn(C)cc3C2C)CC1` (single isomer, unassigned) [Example 379] it is 412 nM.
The figure for `CC(=O)N1CCCC1Cn1cc2c(n1)N(Cc1ccccc1C(F)(F)F)C(=O)N(C1CCN(c3c(C)cccc3F)CC1)C2` (stereo not shown) [Example 115] is 137 nM; for `COc1nccc(C)c1N1CCC(N2Cc3cn(C)nc3N(Cc3ccccc3C(F)(F)F)C2=O)CC1` [Example 54] it is 14 nM; for `Cc1nc2c(s1)N(Cc1ccccc1C(F)(F)F)C(=O)N(C1CCN(c3c(C)cccc3F)CC1)C2` [Example 90] it is 153 nM.
The result for `Cc1cccc(F)c1N1CCC(N2Cc3nn(C)cc3N(Cc3ncccc3C(F)(F)F)C2=O)CC1` [Example 15] reads 45 nM.
Take `Cc1cccc(F)c1N1CCCC(N2Cc3cn(C)nc3N(Cc3ccccc3C(F)(F)F)C2=O)C1` (single isomer, unassigned) [Example 242]: the IC50 is 628 nM.
Take `COC(=O)C(C)Cn1cc2c(n1)N(Cc1ccccc1C(F)(F)F)C(=O)N(C1CCN(c3c(C)cccc3F)CC1)C2` (stereo not shown) [Example 31]: the IC50 stood at 13 nM.
The figure for `COc1nccc(C(F)(F)F)c1N1CCC(N2C(=O)N(Cc3ccccc3C3CC3)c3nn(C)cc3C2C)CC1` (single isomer, unassigned) [Example 375] is 146 nM.
For the compound `COc1nccc(Cl)c1N1CCC(N2C(=O)N(Cc3ccccc3C3CC3)c3nn(C)cc3C2C)CC1` (single isomer, unassigned) [Example 378], the IC50 is 6 nM.
The figure for `COc1nccc(C)c1N1CCC(N2C(=O)N(Cc3ccccc3C3CC3)c3nn(C4CC4)cc3C2C)CC1` (single isomer, unassigned) [Example 381] is 190 nM; for `Cc1cccc(F)c1N1CCC(N2Cc3cn(CC4(F)CC4)nc3N(Cc3ncccc3C(F)(F)F)C2=O)CC1` [Example 200] it is 4 nM.
The figure for `CC(=O)N1CCC(n2cc3c(n2)N(Cc2ccccc2C(F)(F)F)C(=O)N(C2CCN(c4c(C)cccc4F)CC2)C3)C1` (stereo not shown) [Example 113] is 110 nM.
The figure for `Cc1cccc(F)c1N1CCC(N2Cc3cn(CCNC(=O)OC(C)(C)C)nc3N(Cc3ccccc3C(F)(F)F)C2=O)CC1` [Example 67] is 15 nM.
Turning to `Cc1cccnc1N1CCC(N2Cc3cn(C)nc3N(Cc3ccccc3C(F)(F)F)C2=O)CC1` [Example 69], the IC50 is 38 nM.
The result for `COc1ccc(C(F)(F)F)c(CN2C(=O)N(C3CCN(c4c(C)cccc4F)CC3)Cc3cn(C)nc32)n1` [Example 38] reads 12 nM; that for `CC1c2cn(C3CCCCO3)nc2N(Cc2ccccc2C2CC2)C(=O)N1C1CCN(c2c(F)cccc2Cl)CC1` (stereo not shown) [Example 365], 45 nM; that for `Cc1cccc(F)c1N1CCC(N2Cc3cn(CCN(C)C4CC4)nc3N(Cc3ccccc3C(F)(F)F)C2=O)CC1` [Example 73], 17 nM.
The figure for `Cc1cccc(F)c1N1CCC(N2Cc3cn(CC(C)C#N)nc3N(Cc3ccccc3C(F)(F)F)C2=O)CC1` (stereo not shown) [Example 43] is 18 nM; for `Cc1cccc(F)c1N1CCC(N2C(=O)N(Cc3ccccc3C(F)(F)F)c3nn(CC(C)(F)F)cc3C2C)CC1` (single isomer, unassigned) [Example 305] it is 16 nM; for `COC(=O)C(C)(C)n1cc2c(n1)N(Cc1ccccc1C(F)(F)F)C(=O)N(C1CCN(c3c(C)cccc3F)CC1)C2` [Example 27] it is 17 nM.
The figure for `Cc1cccc(F)c1N1CCC(N2C(=O)N(Cc3ccccc3C(F)(F)F)c3cnn(COCC[Si](C)(C)C)c3C2C)CC1` (stereo not shown) [Example 237] is 80 nM.
Take `Cc1cccc(F)c1N1CCC(N2Cc3cn(C4CN(C(=O)OC5(C)COC5)C4)nc3N(Cc3ccccc3C(F)(F)F)C2=O)CC1` [Example 141]: the IC50 was found to be 21 nM.
The result for `COC(=O)Cn1ncc2c1CN(C1CCN(c3c(C)cccc3F)CC1)C(=O)N2Cc1ccccc1C(F)(F)F` [Example 19] reads 637 nM.
The figure for `Cc1cccc(F)c1N1CC(N2Cc3cn(C)nc3N(Cc3ccccc3C(F)(F)F)C2=O)C1` [Example 264] is 216 nM; for `Cc1cccc(F)c1N1CCC(N2Cc3nn(CC4(C)CC4)cc3N(Cc3ccccc3C(F)(F)F)C2=O)CC1` [Example 180] it is 11 nM.
The result for `Cc1cccc(F)c1N1CCC(N2Cc3cn(CC(F)F)nc3N(Cc3ccccc3C(F)(F)F)C2=O)CC1` [Example 159] reads 8 nM; that for `COc1nccc(C(F)F)c1N1CCC(N2C(=O)N(Cc3ccccc3C(F)(F)F)c3nn(C4CC4)cc3C2C)CC1` (single isomer, unassigned) [Example 359], 185 nM; that for `Cc1cccc(F)c1N1CCC(N2C(=O)N(Cc3ccccc3C(F)(F)F)c3cn(CC(C)(F)F)nc3C2C)CC1` (single isomer, unassigned) [Example 253], 16 nM.
As to `Cc1cccc(F)c1N1CCC(N2Cc3cn(C)nc3N(Cc3nnccc3OC(C)C)C2=O)CC1` [Example 267], the 50% inhibitory concentration (IC50) was 201 nM.
The figure for `CC(=O)N1CCC1Cn1cc2c(n1)N(Cc1ccccc1C(F)(F)F)C(=O)N(C1CCN(c3c(C)cccc3F)CC1)C2` (stereo not shown) [Example 114] is 107 nM; for `CC1c2cn(C)nc2N(Cc2ccccc2C(F)(F)F)C(=O)N1C1CCN(c2c(F)cccc2Cl)CC1` (single isomer, unassigned) [Example 319] it is 2 nM.
For the compound `Cc1cccc(F)c1N1CCC(N2Cc3cn(CC(=O)N(C)C)nc3N(Cc3ccccc3C(F)(F)F)C2=O)CC1` [Example 30], the IC50 was 95 nM.
The result for `Cc1cccc(F)c1N1CCC(N2Cc3cn(C[C@H]4CCN4C(=O)OC(C)(C)C)nc3N(Cc3ccccc3C(F)(F)F)C2=O)CC1` [Example 129] reads 20 nM; that for `CC1c2nn(C3CC3)cc2N(Cc2ccccc2C(F)(F)F)C(=O)N1C1CCN(c2c(F)cccc2C(F)F)CC1` (single isomer, unassigned) [Example 330], 1420 nM.
The figure for `COc1nccc(C(F)F)c1N1CCC(N2C(=O)N(Cc3ccccc3C(F)(F)F)c3nn(C4CCCCO4)cc3C2C)CC1` (stereo not shown) [Example 343] is 57 nM; for `Cn1cc2c(n1)N(Cc1ccccc1C1CC1)C(=O)N(C1CCN(c3c(F)cccc3OC(F)(F)F)CC1)C2` [Example 281] it is 17 nM; for `Cc1cccc(F)c1N1CCC(N2Cc3cn(CC#N)nc3N(Cc3ccccc3C(F)(F)F)C2=O)CC1` [Example 24] it is 15 nM.

The values are drawn from US11608341B2, “Substituted tetrahydropyrazolo[3,4-d]pyrimidines and tetrahydropyrazolo[4,3-d]pyrimidines as C5A receptor modulators” (Idorsia Pharmaceuticals Ltd., priority 2018, dated 2023).
